Experimental data from patent publication US8884023B2, “Pyrano [3,2-D][1,3]thiazole as glycosidase inhibitors” (priority 2011, dated 2014).
Like-named read-outs stand apart in the source and are kept apart here.

Assays:
[1] = molecular target: T1, His-Tagged hOGA (human O-GlcNAcase) (Homo sapiens, UniProt O60502); test: biochemical
T1 sequence (O60502 1-916): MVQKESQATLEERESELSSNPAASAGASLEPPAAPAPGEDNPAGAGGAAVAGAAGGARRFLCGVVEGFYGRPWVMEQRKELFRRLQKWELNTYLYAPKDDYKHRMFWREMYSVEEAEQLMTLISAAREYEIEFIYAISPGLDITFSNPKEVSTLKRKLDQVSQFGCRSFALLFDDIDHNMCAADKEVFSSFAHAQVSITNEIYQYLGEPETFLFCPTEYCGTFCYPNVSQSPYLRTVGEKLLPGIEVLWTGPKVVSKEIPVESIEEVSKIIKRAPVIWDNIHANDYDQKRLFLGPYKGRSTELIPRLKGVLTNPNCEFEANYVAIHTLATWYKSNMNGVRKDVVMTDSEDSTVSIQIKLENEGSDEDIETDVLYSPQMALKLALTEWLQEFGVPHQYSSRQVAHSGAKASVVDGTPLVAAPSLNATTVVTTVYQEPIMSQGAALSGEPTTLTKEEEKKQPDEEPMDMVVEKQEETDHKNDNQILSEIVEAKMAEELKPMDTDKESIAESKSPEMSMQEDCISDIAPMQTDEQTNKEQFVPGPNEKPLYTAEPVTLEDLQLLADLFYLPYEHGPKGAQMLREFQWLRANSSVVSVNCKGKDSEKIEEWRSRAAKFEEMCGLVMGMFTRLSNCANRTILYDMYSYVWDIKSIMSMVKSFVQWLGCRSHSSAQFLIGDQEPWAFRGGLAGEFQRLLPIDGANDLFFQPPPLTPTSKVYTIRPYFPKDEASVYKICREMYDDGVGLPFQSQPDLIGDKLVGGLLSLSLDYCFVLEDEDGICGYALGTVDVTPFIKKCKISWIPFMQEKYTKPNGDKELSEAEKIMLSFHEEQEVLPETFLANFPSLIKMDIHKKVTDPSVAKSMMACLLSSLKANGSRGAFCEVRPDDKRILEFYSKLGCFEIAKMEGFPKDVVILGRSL
Description: Human O-GlcNAcase Enzyme Inhibition Assay
The following reaction components were added to a final volume of 10 μL in McIlvaine's Buffer (pH 6.5):
20 nM His-Tagged hOGA and 10 μM Fluoroscein mono-beta-D-(2-deoxy-2-N-acetyl) glucopyranoside (FL-GlcNAc; Marker Gene Technologies Inc, Part #M1485). […] The amount of fluorescence measured was plotted against the concentration of inhibitor to produce a sigmoidal dose response curve, from which an IC50 was calculated.

[2] = molecular target: T2, O-GlcNAcase (UniProt Q8VIJ5); assay type: cell-based
T2 sequence (Q8VIJ5 1-916): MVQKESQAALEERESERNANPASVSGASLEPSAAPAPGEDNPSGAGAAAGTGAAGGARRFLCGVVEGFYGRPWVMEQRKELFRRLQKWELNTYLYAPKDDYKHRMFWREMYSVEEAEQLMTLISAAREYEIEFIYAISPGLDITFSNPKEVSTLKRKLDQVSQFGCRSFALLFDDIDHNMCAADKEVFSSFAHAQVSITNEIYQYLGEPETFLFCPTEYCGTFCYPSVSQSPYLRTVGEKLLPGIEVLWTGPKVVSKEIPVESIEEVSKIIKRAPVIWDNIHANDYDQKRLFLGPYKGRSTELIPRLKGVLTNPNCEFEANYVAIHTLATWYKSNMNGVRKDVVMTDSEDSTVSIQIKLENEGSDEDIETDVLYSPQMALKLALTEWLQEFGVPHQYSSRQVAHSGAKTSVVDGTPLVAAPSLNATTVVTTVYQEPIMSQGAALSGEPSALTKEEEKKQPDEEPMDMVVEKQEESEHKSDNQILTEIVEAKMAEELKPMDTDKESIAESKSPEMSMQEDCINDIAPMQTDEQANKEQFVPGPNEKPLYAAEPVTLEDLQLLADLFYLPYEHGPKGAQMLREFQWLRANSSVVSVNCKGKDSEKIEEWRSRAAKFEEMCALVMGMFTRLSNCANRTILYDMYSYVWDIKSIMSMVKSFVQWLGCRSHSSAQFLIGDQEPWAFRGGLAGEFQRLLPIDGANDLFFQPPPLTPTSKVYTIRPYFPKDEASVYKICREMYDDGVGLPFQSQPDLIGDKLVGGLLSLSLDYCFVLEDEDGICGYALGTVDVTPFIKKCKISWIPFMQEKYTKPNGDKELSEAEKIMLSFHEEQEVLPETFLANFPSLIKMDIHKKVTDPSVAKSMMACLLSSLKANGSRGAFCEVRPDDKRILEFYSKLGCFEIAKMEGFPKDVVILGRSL
Description: Assay for the Determination of Cellular Activity for Compounds that Inhibit O-GlcNAcase Activity
Inhibition of O-GlcNAcase, which removes O-GlcNAc from cellular proteins, results in an increase in the level of O-GlcNAcylated proteins in cells. An increase in the O-GlcNAcylation of cellular proteins can be measured by an antibody, such as CTD110.6, that binds O-GlcNAcylated proteins. The amount of O-GlcNAcylated protein can be determined by the enzyme linked immunoabsorbant assay (ELISA) technique.
Cell lines, such as rat B35, rat PC-12 and human SH-SY5Y cells, expressing endogenous levels of O-GlcNAcase, could be utilized. Cells were plated in 96-well plates at a density of approximately 10,000 cells/well. Compounds to be tested were dissolved in DMSO as 10 mM stock solution, and then diluted first with DMSO and then culture media using the Bravo workstation. Cells were treated with diluted compounds for approximately 16 hours. […] To prepare a cell lysate, the media from compound treated cells were removed, and the cells were washed once with Dulbecco's phosphate buffered saline (DPBS) and then lysed for 30 minutes in 100 μl/well of ice cold RIPA buffer containing a protease inhibitor cocktail.
The ELISA portion of the assay was performed in EIA/RIA plates that were coated overnight at 4 C with 80 μl/well of cell lysate. The following day the wells were washed 6 times with 200 μl of wash buffer (0.05% Tween20 in DPBS). The wells were blocked with 200 μl blocking buffer (1% BSA, 0.05% Tween20 in DPBS) for 1 h at room temperature. Each well was then washed 6 times with 200 μl of wash buffer. The anti-O-GlcNAc antibody CTD110.6 (Covance, Princeton, N.J.) was added at 100 μl/well at a concentration of 10 μg/ml. The plates were incubated for 1 h at room temperature. The wells were then washed 6 times with 200 μl/well of wash buffer. To detect the amount of CTD110.6 bound to the cell lysate, alkaline phosphatase conjugated goat anti-mouse IgM (diluted 1:500 in blocking buffer) was added at 100 μl/well and incubated for 45 min at room temperature. Each well was then washed 6 times with 200 μl/well of wash buffer. PNPP tablets dissolved in diethanolamine substrate buffer and 100 μl/well were added as detection reagent.
The amount of O-GlcNAcylated protein, as detected by the ELISA assay, was plotted for each concentration of test compound using standard curve fitting algorithms for sigmoidal dose response curves. The values for a four parameter logistic curve fit of the data were determined, with the inflection point of the curve being the potency value for the test compound.

[3] = cells expressing endogenous O-GlcNAcase (such as rat B35, rat PC-12, human SH-SY5Y), approximately 16 hours treatment; read-out: OGA cellular inhibition (EC50)
[4] = read-out: OGA enzyme inhibition (IC50)

Row | SMILES | IC50 [1] | EC50 [2, 3] | IC50 [1, 4] | EC50 ([2]; read-out: OGA cellular inhibition (EC50); cells expressing endogenous O-GlcNAcase (such as rat B35, rat PC-12, human SH-SY5Y), approximately 16 hours treatment)
1 | CCNC1=N[C@@H]2[C@@H](O)[C@H](O)[C@@H](Cn3cc(COc4cccc(S(C)(=O)=O)c4)nn3)O[C@@H]2S1 [compound 81] | < 100 nM | > 1000 nM |  | 
2 | CCNC1=N[C@@H]2[C@@H](O)[C@H](O)[C@@H](Cn3cc(COc4ccccc4C#N)nn3)O[C@@H]2S1 [compound 82] | < 100 nM | > 1000 nM |  | 
3 | CCNC1=N[C@@H]2[C@@H](O)[C@H](O)[C@@H](Cn3cc(COc4ccccc4O)nn3)O[C@@H]2S1 [compound 84] | 100 to 500 nM | > 1000 nM |  | 
4 | CCNC1=N[C@@H]2[C@@H](O)[C@H](O)[C@@H](Cn3cc(COc4ccccc4Cl)nn3)O[C@@H]2S1 [compound 86] | < 100 nM | < 100 nM |  | 
5 | CCNC1=N[C@@H]2[C@@H](O)[C@H](O)[C@@H](Cn3cc(COc4ccccc4C)nn3)O[C@@H]2S1 [compound 87] |  | 500 to 1000 nM | < 100 nM | 
6 | CCNC1=N[C@@H]2[C@@H](O)[C@H](O)[C@@H](Cn3cc(COc4ccccc4OC)nn3)O[C@@H]2S1 [compound 88] | < 100 nM | > 1000 nM |  | 
7 | CCNC1=N[C@@H]2[C@@H](O)[C@H](O)[C@@H](Cn3cc(COc4ccccc4F)nn3)O[C@@H]2S1 [compound 89] |  | 100 to 500 nM | < 100 nM | 
8 | CCNC1=N[C@@H]2[C@@H](O)[C@H](O)[C@@H](Cn3cc(COc4ccc(C(C)O)cc4)nn3)O[C@@H]2S1 (stereo partly shown) [compound 90] | < 100 nM | > 1000 nM |  | 
9 | CCNC1=N[C@@H]2[C@@H](O)[C@H](O)[C@@H](Cn3cc(COc4ccc(C)cc4)nn3)O[C@@H]2S1 [compound 91] |  | > 1000 nM | 100 to 500 nM | 
10 | CCNC1=N[C@@H]2[C@@H](O)[C@H](O)[C@@H](Cn3cc(COc4ccc(Cl)cc4)nn3)O[C@@H]2S1 [compound 92] |  | 100 to 500 nM | < 100 nM | 
11 | CCNC1=N[C@@H]2[C@@H](O)[C@H](O)[C@@H](Cn3cc(COc4ccc(F)cc4)nn3)O[C@@H]2S1 [compound 93] |  | > 1000 nM | < 100 nM | 
12 | CCNC1=N[C@@H]2[C@@H](O)[C@H](O)[C@@H](Cn3cc(COc4ccc(C(C)(C)C)cc4)nn3)O[C@@H]2S1 [compound 94] | 100 to 500 nM | 100 to 500 nM |  | 
13 | CCNC1=N[C@@H]2[C@@H](O)[C@H](O)[C@@H](Cn3cc(-c4ccccc4)nn3)O[C@@H]2S1 [compound no. 2, (3aR,5R,6S,7R,7aR)-2-(ethylamino)-5-[(4-phenyl-1H-1,2,3-triazol-1-yl)methyl]-5,6,7,7a-tetrahydro-3aH-pyrano[3,2-d][1,3]thiazole-6,7-diol] |  | > 1000 nM | 100 to 500 nM | 
14 | CCNC1=N[C@@H]2[C@@H](O)[C@H](O)[C@@H](COC(=O)OC(C)(C)C)O[C@@H]2S1 [compound no. 3, tert-butyl [(3aR,5R,6S,7R,7aR)-2-(ethylamino)-6,7-dihydroxy-5,6,7,7a-tetrahydro-3aH-pyrano[3,2-d][1,3]thiazol-5-yl]methyl carbonate] |  | < 100 nM | 100 to 500 nM | 
15 | CCNC1=N[C@@H]2[C@@H](O)[C@H](O)[C@@H](CF)O[C@@H]2S1 [compound no. 4, (3aR,5S,6S,7R,7aR)-2-(ethylamino)-5-(fluoromethyl)-5,6,7,7a-tetrahydro-3aH-pyrano[3,2-d][1,3]thiazole-6,7-diol] | < 100 nM |  |  | 100 to 500 nM
16 | CCNC1=N[C@@H]2[C@@H](O)[C@H](O)[C@@H](CBr)O[C@@H]2S1 [compound no. 5, (3aR,5S,6S,7R,7aR)-5-(bromomethyl)-2-(ethylamino)-5,6,7,7a-tetrahydro-3aH-pyrano[3,2-d][1,3]thiazole-6,7-diol] |  | 100 to 500 nM | < 100 nM | 
17 | CCNC1=N[C@@H]2[C@@H](O)[C@H](O)[C@@H](Cn3cc(CCc4ccccc4)nn3)O[C@@H]2S1 [compound no. 6, (3aR,5R,6S,7R,7aR)-2-(ethylamino)-5-{[4-(2-phenylethyl)-1H-1,2,3-triazol-1-yl]methyl}-5,6,7,7a-tetrahydro-3aH-pyrano[3,2-d][1,3]thiazole-6,7-diol] | < 100 nM | 500 to 1000 nM |  | 
18 | CCNC1=N[C@@H]2[C@@H](O)[C@H](O)[C@@H](Cn3cc(-c4ccccn4)nn3)O[C@@H]2S1 [compound no. 7, (3aR,5R,6S,7R,7aR)-2-(ethylamino)-5-[(4-pyridin-2-yl-1H-1,2,3-triazol-1-yl)methyl]-5,6,7,7a-tetrahydro-3aH-pyrano[3,2-d][1,3]thiazole-6,7-diol] |  | > 1000 nM | 100 to 500 nM | 
19 | CCNC1=N[C@@H]2[C@@H](O)[C@H](O)[C@@H](Cn3cc(C(=O)OC)nn3)O[C@@H]2S1 [compound no. 10, Methyl 1-{[(3aR,5R,6S,7R,7aR)-2-(ethylamino)-6,7-dihydroxy-5,6,7,7a-tetrahydro-3aH-pyrano[3,2-d][1,3]thiazol-5-yl]methyl}-1H-1,2,3-triazole-4-carboxylate] |  | 500 to 1000 nM | 100 to 500 nM | 
20 | CCN(C(=O)OC(C)(C)C)C1=N[C@@H]2[C@@H](O)[C@H](O)[C@@H](CO)O[C@@H]2S1 [compound no. 12, Tert-butyl [(3aR,5R,6S,7R,7aR)-6,7-dihydroxy-5-(hydroxymethyl)-5,6,7,7a-tetrahydro-3aH-pyrano[3,2-d][1,3]thiazol-2-yl]ethylcarbamate] | < 100 nM | < 100 nM |  | 
